Reference: patent US12441754B2, “Galactoside inhibitor of galectins” (GALECTO BIOTECH AB, priority 2019, dated 2025)
Like-named read-outs stand apart in the source and are kept apart here.

How the values were obtained:
[1] = molecular target: T1, Galectin-1 (Homo sapiens, UniProt P09382); experiment: fluorescence anisotropy assay, compound as inhibitor of galectin / fluorescein tagged saccharide probe interaction; assay type: binding
Excerpt: (§1) Anal. Biochem. 334: 36-47, (Sörme et al., 2004) and Monovalent interactions of Galectin-1 By Salomonsson, Emma; Larumbe, Amaia; Tejler, Johan; Tullberg, Erik; Rydberg, Hanna; Sundin, Anders; Khabut, Areej; Frejd, Torbjorn; Lobsanov, Yuri D.; Rini, James M.; et al, From Biochemistry (2010), 49(44), 9518-9532, (Salomonsson et al., 2010).

[2] = molecular target: Galectin-3 (Homo sapiens, UniProt P17931); experiment: as above; assay type: binding
Chain of Galectin-3 (P17931 whole entry): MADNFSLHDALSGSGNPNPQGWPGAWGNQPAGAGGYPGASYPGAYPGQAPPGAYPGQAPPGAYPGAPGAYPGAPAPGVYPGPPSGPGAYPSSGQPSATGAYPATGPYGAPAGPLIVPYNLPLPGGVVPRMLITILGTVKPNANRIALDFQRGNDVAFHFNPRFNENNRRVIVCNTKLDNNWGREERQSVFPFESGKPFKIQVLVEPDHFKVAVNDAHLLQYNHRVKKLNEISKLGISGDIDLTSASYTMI
Excerpt: as §1

[3] = CACO-2 model of uptake over the human intestine; assay type: in vitro ADME; details: human, Caco-2
Excerpt: (§2) For some compounds of this invention wherein R^1 of formula 1 is an alkylated hydroxy, for example —OCH3 high uptake and no efflux is observed in a CACO-2 model of uptake ver the human intestine. That predicts high likeliness of high human oral bioavailability.

[4] = system: CACO-2; experiment: CACO-2 model of uptake over the human intestine; assay type: in vitro ADME; details: result in words
Excerpt: as §2

[5] = molecular target: T1, Galectin-1; details: T. Delaine 2016; read-out: affinity to Galectin-1; cited from earlier work
[6] = molecular target: T2, galectins; details: cited from earlier work
T2 construct: Kd, all galectins; other: compared with lactose

T1 sequence (P09382 whole entry): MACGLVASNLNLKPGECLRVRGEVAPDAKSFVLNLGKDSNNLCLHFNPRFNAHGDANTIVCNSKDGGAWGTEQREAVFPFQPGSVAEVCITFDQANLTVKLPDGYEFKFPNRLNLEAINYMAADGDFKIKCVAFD

Kd [2]	Kd [1]	Structure (SMILES)	other results
–	–	OCC1O[C@@H](SC2O[C@H](CO)C(O)C(n3cc(-c4ccsc4)nn3)[C@H]2O)C(O)C(n2cc(-c3ccsc3)nn2)[C@H]1O (some centres unmarked)	Kd [5]: < 0.01 µM
–	–	OC[C@H]1O[C@@H](O[C@H]2[C@H](O)[C@@H](O)C(O)O[C@@H]2CO)[C@H](O)[C@@H](O)[C@H]1O (some centres unmarked) [lactose]	Kd ([6]; read-out: Kd, all galectins): 100 to 1000 µM
–	–	O=C[C@H](O)[C@@H](O)[C@@H](O)[C@H](O)CO [D-galactose]	affinity relative to lactose (times lower) ([6]; compared with lactose): 50-100 times
7.5 µM	0.18 µM	CO[C@@H]1[C@@H](n2cc(-c3csc(N)n3)nn2)[C@@H](O)[C@@H](CO)O[C@@H]1Sc1ccc2ncsc2c1 [Example 99, 1,3-Benzothiazol-6-yl 3-[4-(2-aminothiazol-4-yl)-1H-1,2,3-triazol-1-yl]-3-deoxy-2-O-methyl-1-thio-α-D-galactopyranoside]	–
2.2 µM	0.054 µM	CO[C@@H]1[C@@H](n2cc(-c3csc(N)n3)nn2)[C@@H](O)[C@@H](CO)O[C@@H]1Sc1cc(Br)ccc1C#N [Example 59, 5-Bromo-2-cyanophenyl 3-[4-(2-aminothiazol-4-yl)-1H-1,2,3-triazol-1-yl]-3-deoxy-2-O-methyl-1-thio-α-D-galactopyranoside]	–
0.048 µM	0.015 µM	CNC(=O)c1ncc(Cl)cc1S[C@H]1O[C@H](CO)[C@H](O)[C@H](n2cc(-c3nc(Cl)cs3)nn2)[C@H]1OC [Example 93, 5-Chloro-2-(N-methylcarbamoyl)pyridin-3-yl 3-[4-(4-chlorothiazol-2-yl)-1H-1,2,3-triazol-1-yl]-3-deoxy-2-O-methyl-1-thio-α-D-galactopyranoside]	–

Structure (SMILES)	Kd [2]	Kd [1]	other results
CO[C@@H]1[C@@H](n2cc(-c3nccs3)nn2)[C@@H](O)[C@@H](CO)O[C@@H]1Sc1cc(Cl)c(F)c(Cl)c1 [Example 1, 3,5-Dichloro-4-fluorophenyl 3-deoxy-2-O-methyl-3-[4-(2-thiazolyl)-1H-1,2,3-triazol-1-yl]-1-thio-α-D-galactopyranoside]	8 µM	–	Kd ([1]; read-out: Galectin-1 Kd): 0.175 µM; Papp A→B ([3]; A>B, read-out: Papp from the apical to the basolateral side (A>B)): 20 ×10⁻⁶ cm/s; Papp B→A ([3]; B>A, read-out: Papp from the basolateral to the apical side B>A): 28 ×10⁻⁶ cm/s; uptake and efflux in CACO-2 model [4]: the uptake is very high and virtually no efflux is observed
